Tested on: warts
Settings: human, in vivo
Text: In accordance with the method according to this invention, regular use of the α- and β-santalols is meant to mean application of the α- and β-santalols at least once a day to the body surface containing the viral-induced tumors (i.e., warts and Molluscom contagiosum tumors). A further embodiment of the method of this invention comprises washing the affected area of the body with the soap, rinsing the area, placing a small amount of the α- and β-santalols on the tumor to be treated and then gently rubbing to facilitate penetration. […] The subject was advised to rub 1 drop of the santalol mixture after washing their hand with regular soap and water. The subject was to use a loofah sponge to soften the surface of the warts prior to the application of the santalol mixture. […] A subject had three warts on their right and left index fingers for over five years. […] The subject was advised to wash the warts with soap and water using a loofah sponge to soften the surface of the warts, prior to applying one drop of the santalol mixture on the warts and rubbing gently. The treatment was to occur once a day. […] The subject was asked to wash the warts on their face with soap and water and then apply the santalols with a cotton swab. […] After the resolution of the facial warts, the subject's non-facial warts were treated with the santalols.

α- and β-santalol [santalol mixture] was tested, and the “local side effects (redness, irritation or pain)” value was “no evidence of any local side effects”, the “local skin irritation (redness, pain)” value was “no evidence of any local skin irritation” and the “skin irritation, burning or redness at sites of application” value was “no evidence”. For the same substance, the tolerability of treatment was “well tolerated”.
